Laboratory results as given in paper PMC4599001, “Selective Irreversible Inhibition of Neuronal and Inducible Nitric-oxide Synthase in the Combined Presence of Hydrogen Sulfide and Nitric Oxide” (The Journal of Biological Chemistry, 2015).
“And” between values parts separate entries of the source, which are not always exact repeats. Equal entries are not always repeated. “Also recorded” adds a separate entry of the source. Where two headings read alike, the source gives them in different places. Each block holds one compound with its values, some of them ahead of it.

Assays:
eNOS [1] = target: T1, eNOS (Homo sapiens, UniProt P29474); type: biochemical; conditions: for ActH2S, specific activity (citrulline formation) / Inhibition / vNO^H2S, NO formation rate: 0.5 mM H2S
Target sequence in this assay (P29474 2-1203): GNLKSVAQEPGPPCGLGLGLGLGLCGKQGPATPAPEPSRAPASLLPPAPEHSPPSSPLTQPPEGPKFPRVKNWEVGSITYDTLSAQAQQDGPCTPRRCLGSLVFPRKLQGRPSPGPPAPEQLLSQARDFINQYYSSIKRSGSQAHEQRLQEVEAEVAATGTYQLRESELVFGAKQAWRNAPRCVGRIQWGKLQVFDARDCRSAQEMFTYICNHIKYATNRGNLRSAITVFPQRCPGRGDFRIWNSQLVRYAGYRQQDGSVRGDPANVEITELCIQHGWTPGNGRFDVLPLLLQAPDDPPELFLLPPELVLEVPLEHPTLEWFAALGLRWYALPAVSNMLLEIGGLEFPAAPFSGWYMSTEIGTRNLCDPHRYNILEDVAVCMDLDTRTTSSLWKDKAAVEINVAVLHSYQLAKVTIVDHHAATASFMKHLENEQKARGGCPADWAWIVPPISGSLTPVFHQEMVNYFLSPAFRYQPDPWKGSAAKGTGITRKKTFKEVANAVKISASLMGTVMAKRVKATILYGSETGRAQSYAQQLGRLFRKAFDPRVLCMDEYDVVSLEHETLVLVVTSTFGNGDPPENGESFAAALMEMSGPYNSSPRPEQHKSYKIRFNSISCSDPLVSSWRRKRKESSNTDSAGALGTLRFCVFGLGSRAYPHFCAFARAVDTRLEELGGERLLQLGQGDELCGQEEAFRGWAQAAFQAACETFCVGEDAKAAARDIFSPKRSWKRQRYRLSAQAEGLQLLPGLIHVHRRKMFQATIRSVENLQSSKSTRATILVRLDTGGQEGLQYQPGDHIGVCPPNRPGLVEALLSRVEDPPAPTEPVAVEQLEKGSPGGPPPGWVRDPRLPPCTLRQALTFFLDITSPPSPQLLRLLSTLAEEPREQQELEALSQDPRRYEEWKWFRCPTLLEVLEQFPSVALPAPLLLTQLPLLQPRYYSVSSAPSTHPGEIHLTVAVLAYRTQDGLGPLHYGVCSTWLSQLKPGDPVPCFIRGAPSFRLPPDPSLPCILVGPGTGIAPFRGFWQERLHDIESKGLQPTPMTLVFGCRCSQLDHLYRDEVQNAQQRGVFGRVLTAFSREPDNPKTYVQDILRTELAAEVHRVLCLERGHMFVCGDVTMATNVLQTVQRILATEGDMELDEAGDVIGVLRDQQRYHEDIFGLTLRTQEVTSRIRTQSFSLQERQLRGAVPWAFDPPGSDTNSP

nNOS [2] = target: T2, nNOS (Homo sapiens, UniProt P29475); experiment: NADPH oxidation by nNOS (340 nm); type: biochemical
T2 sequence (P29475 whole entry): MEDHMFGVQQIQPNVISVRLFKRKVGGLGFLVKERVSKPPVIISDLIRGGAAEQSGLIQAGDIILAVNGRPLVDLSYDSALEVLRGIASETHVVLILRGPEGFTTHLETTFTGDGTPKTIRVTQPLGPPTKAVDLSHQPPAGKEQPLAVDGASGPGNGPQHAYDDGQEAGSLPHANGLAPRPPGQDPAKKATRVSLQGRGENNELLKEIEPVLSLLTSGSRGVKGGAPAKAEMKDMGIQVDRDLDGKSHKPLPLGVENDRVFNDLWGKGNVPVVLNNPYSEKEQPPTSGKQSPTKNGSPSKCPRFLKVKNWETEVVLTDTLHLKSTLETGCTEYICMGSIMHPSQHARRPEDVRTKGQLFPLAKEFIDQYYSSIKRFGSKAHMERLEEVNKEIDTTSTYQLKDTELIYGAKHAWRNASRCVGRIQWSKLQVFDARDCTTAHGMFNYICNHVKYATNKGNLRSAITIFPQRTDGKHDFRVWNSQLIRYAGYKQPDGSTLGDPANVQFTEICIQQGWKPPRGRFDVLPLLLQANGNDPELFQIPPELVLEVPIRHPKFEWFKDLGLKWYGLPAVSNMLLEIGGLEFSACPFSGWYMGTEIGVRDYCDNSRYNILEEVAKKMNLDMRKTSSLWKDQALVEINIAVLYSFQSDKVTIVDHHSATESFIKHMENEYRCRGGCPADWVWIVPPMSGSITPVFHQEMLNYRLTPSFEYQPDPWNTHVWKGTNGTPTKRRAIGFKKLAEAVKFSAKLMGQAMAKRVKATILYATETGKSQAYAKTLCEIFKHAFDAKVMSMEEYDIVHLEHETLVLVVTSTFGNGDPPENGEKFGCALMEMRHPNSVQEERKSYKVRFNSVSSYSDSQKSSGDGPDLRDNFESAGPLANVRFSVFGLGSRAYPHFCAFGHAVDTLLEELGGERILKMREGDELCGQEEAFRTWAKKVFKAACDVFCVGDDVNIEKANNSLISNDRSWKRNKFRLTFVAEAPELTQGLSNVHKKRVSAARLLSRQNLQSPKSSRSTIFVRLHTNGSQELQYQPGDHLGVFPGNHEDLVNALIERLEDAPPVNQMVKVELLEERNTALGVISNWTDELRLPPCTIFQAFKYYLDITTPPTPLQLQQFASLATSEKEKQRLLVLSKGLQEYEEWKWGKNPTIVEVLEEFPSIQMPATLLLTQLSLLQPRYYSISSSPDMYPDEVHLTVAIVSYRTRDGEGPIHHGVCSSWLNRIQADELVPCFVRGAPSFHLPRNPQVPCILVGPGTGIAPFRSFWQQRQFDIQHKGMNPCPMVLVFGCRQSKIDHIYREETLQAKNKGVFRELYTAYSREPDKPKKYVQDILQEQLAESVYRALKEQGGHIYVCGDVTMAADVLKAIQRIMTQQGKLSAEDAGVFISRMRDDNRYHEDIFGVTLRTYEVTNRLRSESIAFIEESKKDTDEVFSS

nNOS [3] = target: T2, nNOS; type: biochemical
nNOS [4] = target: T2, nNOS; conditions: for ActH2S, specific activity (citrulline formation) / Inhibition / vNO^H2S, NO formation rate: 0.5 mM H2S
[5] = 37 °C; cited from earlier work
mouse macrophage iNOS = target: T3, mouse macrophage iNOS (Mus musculus, UniProt P29477); type: biochemical; conditions: pH 7.4; read-out: IC50, citrulline formation by iNOS
T3 construct: made in house; host or cells: Escherichia coli
T3 sequence (P29477 whole entry): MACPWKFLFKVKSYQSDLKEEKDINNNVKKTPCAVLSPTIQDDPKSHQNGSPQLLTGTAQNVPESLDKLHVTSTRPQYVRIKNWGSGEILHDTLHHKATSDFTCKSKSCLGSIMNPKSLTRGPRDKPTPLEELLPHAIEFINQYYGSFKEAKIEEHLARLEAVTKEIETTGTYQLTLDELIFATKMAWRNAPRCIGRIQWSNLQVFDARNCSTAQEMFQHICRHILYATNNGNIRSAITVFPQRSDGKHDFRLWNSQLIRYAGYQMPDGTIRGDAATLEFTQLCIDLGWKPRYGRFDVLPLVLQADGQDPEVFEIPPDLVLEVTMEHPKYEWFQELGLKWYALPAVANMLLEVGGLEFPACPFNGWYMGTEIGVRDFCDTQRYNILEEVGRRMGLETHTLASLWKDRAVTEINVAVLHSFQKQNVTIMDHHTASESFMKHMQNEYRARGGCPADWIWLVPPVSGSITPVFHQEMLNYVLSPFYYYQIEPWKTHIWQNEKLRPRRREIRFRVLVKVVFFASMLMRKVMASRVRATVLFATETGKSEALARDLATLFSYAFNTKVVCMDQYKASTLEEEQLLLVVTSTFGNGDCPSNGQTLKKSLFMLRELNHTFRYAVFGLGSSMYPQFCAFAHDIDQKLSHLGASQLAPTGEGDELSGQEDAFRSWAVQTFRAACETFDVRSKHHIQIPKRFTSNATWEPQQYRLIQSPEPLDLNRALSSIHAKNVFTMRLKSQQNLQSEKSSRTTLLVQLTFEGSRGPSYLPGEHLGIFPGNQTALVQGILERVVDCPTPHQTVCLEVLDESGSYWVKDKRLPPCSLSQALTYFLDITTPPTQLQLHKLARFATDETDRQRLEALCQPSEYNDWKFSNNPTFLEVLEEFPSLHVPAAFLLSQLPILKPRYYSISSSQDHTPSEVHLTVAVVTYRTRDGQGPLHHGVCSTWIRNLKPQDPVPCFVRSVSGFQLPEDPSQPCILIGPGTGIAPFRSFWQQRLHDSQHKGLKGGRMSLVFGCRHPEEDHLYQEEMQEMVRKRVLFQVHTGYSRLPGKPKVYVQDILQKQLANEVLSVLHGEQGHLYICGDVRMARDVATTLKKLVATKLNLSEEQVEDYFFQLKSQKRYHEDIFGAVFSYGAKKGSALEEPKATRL

nNOS [6] = target: T2, nNOS; type: binding
nNOS [7] = target: T2, nNOS
eNOS [8] = target: T1, eNOS
nNOS [9] = conditions: read-out: IC50, inhibition of nNOS, cited from earlier work
[10] = cited from earlier work; for t1/2 of NO release: ref 35
eNOS [11] = target: T1, eNOS; experiment: NADPH oxidation by eNOS (340 nm); type: biochemical; conditions: +Arg, +BH4, without Na2S

SMILES: S [H2S, hydrogen sulfide]
ActH2S, specific activity (citrulline formation) (eNOS [1]; eNOS 2.0 μg/ml): 98 ± 12 nmol/mg/min
Inhibition (eNOS [1]; eNOS 2.0 μg/ml): 24 ± 16%
vNO^H2S, NO formation rate (eNOS [1]; eNOS 2.0 μg/ml): 0.20 ± 0.02 µM/min
ActH2S, specific activity (citrulline formation) (eNOS [1]; eNOS 10.0 μg/ml): 134 ± 16 nmol/mg/min
Inhibition (eNOS [1]; eNOS 10.0 μg/ml): 16 ± 12%
vNO^H2S, NO formation rate (eNOS [1]; eNOS 10.0 μg/ml): 1.34 ± 0.16 µM/min
ActH2S, specific activity (citrulline formation) (eNOS [1]; eNOS 15.0 μg/ml): 146 ± 19 nmol/mg/min
Inhibition (eNOS [1]; eNOS 15.0 μg/ml): 5 ± 14%
vNO^H2S, NO formation rate (eNOS [1]; eNOS 15.0 μg/ml): 2.2 ± 0.3 µM/min
ActH2S, specific activity (citrulline formation) (eNOS [1]; eNOS 30.0 μg/ml): 136 ± 38 nmol/mg/min
Inhibition (eNOS [1]; eNOS 30.0 μg/ml): −6 ± 35%
vNO^H2S, NO formation rate (eNOS [1]; eNOS 30.0 μg/ml): 4.1 ± 1.1 µM/min
IC50 (nNOS [2]; Arg and/or BH4 omitted, no NO (span over conditions), read-out: IC50, reversible inhibition of nNOS by H2S alone): 100 to 600 µM
Decrease of nNOS activity after dilution (nNOS [3]; preincubation with 0.5 mM Na2S under turnover conditions (+CaM), 150-fold dilution): ~70%
nNOS activity after dilution (nNOS [3]; preincubation with 0.5 mM Na2S, CaM omitted during preincubation): activity was not affected
ActH2S, specific activity (citrulline formation) (nNOS [4]; nNOS 0.5 μg/ml): 53 ± 26 nmol/mg/min
Inhibition (nNOS [4]; nNOS 0.5 μg/ml): 86 ± 7%
vNO^H2S, NO formation rate (nNOS [4]; nNOS 0.5 μg/ml): 0.026 ± 0.013 µM/min
ActH2S, specific activity (citrulline formation) (nNOS [4]; nNOS 2.0 μg/ml): 31 ± 8 nmol/mg/min
Inhibition (nNOS [4]; nNOS 2.0 μg/ml): 92 ± 2%
vNO^H2S, NO formation rate (nNOS [4]; nNOS 2.0 μg/ml): 0.062 ± 0.016 µM/min
ActH2S, specific activity (citrulline formation) (nNOS [4]; nNOS 10.0 μg/ml): 24 ± 2 nmol/mg/min
Inhibition (nNOS [4]; nNOS 10.0 μg/ml): 92 ± 1%
vNO^H2S, NO formation rate (nNOS [4]; nNOS 10.0 μg/ml): 0.24 ± 0.02 µM/min
ActH2S, specific activity (citrulline formation) (nNOS [4]; nNOS 15.0 μg/ml): 29 ± 2 nmol/mg/min
Inhibition (nNOS [4]; nNOS 15.0 μg/ml): 91 ± 1%
vNO^H2S, NO formation rate (nNOS [4]; nNOS 15.0 μg/ml): 0.44 ± 0.03 µM/min
pKa of the H2S/HS− equilibrium [5]: 6.76

SMILES: [Na+].[Na+].[S-2] [Na2S, sodium sulfide]
IC50 (mouse macrophage iNOS): ~79 µM and 79 µM
Effect on eNOS activity (eNOS [1]): hardly affected
Effect on citrulline formation by eNOS (eNOS [1]; pH 7.4): hardly affected at all; also recorded: only marginally affected
Extent of spectral transition to thiol complex (nNOS [6]): approximately 50%
Decrease of nNOS activity after dilution (nNOS [3]): approximately 70%
Reversal of inhibition by thiols (nNOS [3]): none of these thiols restored the activity
nNOS activity after dilution (nNOS [3]): not affected
Dimeric enzyme, gel filtration (nNOS [7]): ~55%
Dimer/monomer ratio of eNOS (eNOS [8]): not affected by Na2S at all
Effect of thiols on IC50 of inhibition of citrulline formation (nNOS [4]): none of these thiols had any impact on IC50 values
nNOS activity blocked (nNOS [4]): ~90%
pKa from plot of IC50 against pH (nNOS [4]): 7.310 ± 0.014
IC50 (nNOS [4]; read-out: IC50, citrulline formation by nNOS): 23 µM
IC50 (nNOS [4]; read-out: IC50, citrulline formation by nNOS, pH 6): ~15 µM and 15 µM
IC50 (nNOS [4]; read-out: IC50, citrulline formation by nNOS, pH 7.4): ~24 µM and 24 µM and 31 µM
IC50 (nNOS [4]; read-out: IC50, citrulline formation by nNOS, pH 8): ~83 µM and 83 µM

SMILES: O[C@@H](CS)[C@@H](O)CS [DTT]
IC50 (nNOS [9]; ref 16): 13200 µM
IC50 (nNOS [9]; ref 27): 160 µM

SMILES: C1COCCN1.COc1ccc(P(=S)(S)N2CCOCC2)cc1 (centres unmarked) [GYY4137]
IC50 (nNOS [4]; read-out: Apparent IC50, citrulline formation by nNOS): 2200 µM
t½ of H2S release ([10]; ref 34): ~415 min

IC50 (nNOS [2]; +Arg, −BH4, in the absence of Na2S, read-out: IC50, NADPH oxidation by nNOS): ~80 µM
IC50 (nNOS [2]; +Arg, −BH4, in the presence of 10 μM Na2S, read-out: IC50, NADPH oxidation by nNOS): ~10 µM
IC50 (eNOS [11]): 100 µM
SMILES: O=C([O-])[C@@H]1CCCN1[N+]([O-])=NO.O=C([O-])[C@@H]1CCCN1[N+]([O-])=NO.[Na+].[Na+] [PROLI/NO, 1-(hydroxy-NNO-azoxy)-L-proline, disodium salt]
t1/2 of NO release [10]: 0.017 to 0.033 min

IC50 (nNOS [2]; absence of BH4, with Na2S, after 10 min, read-out: Apparent IC50, potentiation of the inhibitory effect of Na2S on NADPH oxidation by nNOS): 106 µM
SMILES: NCCCNCCCCN(CCCN)/[N+]([O-])=N/O [SPER/NO, (Z)-1-[N-[3-aminopropyl]-N-[4-(3-aminopropylammonio)butyl]amino]diazen-1-ium-1,2-diolate]
t1/2 of NO release [10]: ~30 min

SMILES: [Na+].[Na+].[O-][N+]([O-])=NO [Angeli's salt, disodium diazen-1-ium-1,2,2-triolate]
Reversal of inhibition by thiols (nNOS [4]; 10 mM GSH or 2 mM DTT present): completely reversed in the presence of thiols
IC50 (nNOS [4]; read-out: IC50, citrulline formation by nNOS, Angeli's salt as HNO donor, 50 mM TEA pH 7.4, 10 min, 37 °C): 190 µM
